Source: ChEMBL document CHEMBL4342405, “Clinical candidates modulating protein-protein interactions: The fragment-based experience” (Eur J Med Chem, 2019)

How the values were obtained:
Bcl-2-like protein 2 = molecular target: T1, Bcl-2-like protein 2 (Homo sapiens, UniProt Q92843); experiment: Inhibition of BCL-W (unknown origin) by fluorescence polarization assay
T1 sequence (Q92843 whole entry): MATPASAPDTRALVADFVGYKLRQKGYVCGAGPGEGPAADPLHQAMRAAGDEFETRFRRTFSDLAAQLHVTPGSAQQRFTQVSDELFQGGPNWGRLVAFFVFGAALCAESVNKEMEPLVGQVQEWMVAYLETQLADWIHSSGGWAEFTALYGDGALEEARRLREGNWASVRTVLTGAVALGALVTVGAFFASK

[1] = Toxicity in mouse xenografted with human haematological tumor at 12.5 mg/kg, po; type: organism-based
Bcl-2-like protein 1 [2] = molecular target: T2, Bcl-2-like protein 1 (Homo sapiens, UniProt Q07817); experiment: Binding affinity to BCL-XL (unknown origin) by 15N HSQC NMR analysis
[3] = Half life in dog; type: ADME, Canis lupus familiaris; details: in vivo
[4] = Half life in monkey; type: ADME, Macaca mulatta; details: rhesus monkey, in vivo
[5] = Oral bioavailability in mouse; type: ADME, organism-based; details: in vivo
[6] = Half life in mouse; type: ADME, organism-based; details: in vivo
[7] = Oral bioavailability in dog; type: ADME, organism-based, Canis lupus familiaris; details: in vivo
[8] = Half life in rat; type: ADME; details: in vivo
[9] = Oral bioavailability in rat; type: ADME, organism-based; details: in vivo
[10] = Oral bioavailability in monkey; type: ADME, organism-based, Macaca mulatta; details: rhesus monkey, in vivo
Bcl-2-like protein 1 [11] = molecular target: T2, Bcl-2-like protein 1; experiment: Inhibition of BCL-XL (unknown origin) incubated for 15 mins by fluorescence polarization assay
[12] = Half life in human; type: ADME

T2 sequence (Q07817 whole entry): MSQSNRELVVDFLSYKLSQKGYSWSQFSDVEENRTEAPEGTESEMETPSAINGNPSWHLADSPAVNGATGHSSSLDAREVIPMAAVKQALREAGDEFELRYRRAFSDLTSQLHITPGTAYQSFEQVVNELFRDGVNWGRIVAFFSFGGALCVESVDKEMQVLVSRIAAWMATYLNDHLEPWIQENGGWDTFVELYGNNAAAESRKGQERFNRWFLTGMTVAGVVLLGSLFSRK

In the case of `CC1(C)CCC(c2ccc(Cl)cc2)=C(CN2CCN(c3ccc(C(=O)NS(=O)(=O)c4ccc(N[C@H](CCN5CCOCC5)CSc5ccccc5)c(S(=O)(=O)C(F)(F)F)c4)cc3)CC2)C1` [NAVITOCLAX], the Ki (Bcl-2-like protein 2) is reported as 0.245 µM and the EC50 [1] is reported as 0.083 µM.
`CC1(C)CCC(CN2CCN(c3ccc(C(=O)NS(=O)(=O)c4ccc(NCC5CCOCC5)c([N+](=O)[O-])c4)c(Oc4cnc5[nH]ccc5c4)c3)CC2)=C(c2ccc(Cl)cc2)C1` [VENETOCLAX] showed an EC50 [1] of 5.5 µM.
With `Oc1ccc(-c2ccccc2)cc1` the Kd (Bcl-2-like protein 1 [2]) was 6000 µM.
In the case of `CN(C)CC[C@H](CSc1ccccc1)Nc1ccc(S(=O)(=O)NC(=O)c2ccc(N3CCN(Cc4ccccc4-c4ccc(Cl)cc4)CC3)cc2)cc1[N+](=O)[O-]` [ABT 737], the half-life [3] is reported as 4 to 6.4 h, the half-life [4] is reported as 4 to 6.4 h and the bioavailability [5] is reported as 20%. For the same molecule, the half-life [6] was 4 to 6.4 h, the bioavailability [7] was 20% and the half-life [8] was 4 to 6.4 h. The bioavailability [9] was 20% and the bioavailability [10] was 20%.
Molecule `O=C(O)c1ccc(-c2ccc(F)cc2)cc1/C=C/c1cccc(-c2ccccc2)c1` has a Ki (Bcl-2-like protein 1 [11]) of 1.4 µM.
Molecule `CCS(=O)(=O)Nc1ccc(Oc2ccc(F)cc2F)c(-c2cn(C)c(=O)c3[nH]ccc23)c1` [MIVEBRESIB] has a half-life [12] of 25 h.
